Where two headings read alike, the source gives them in different places.
What was measured:
[1] = molecular target: T1, protocollagen prolyl hydroxylase (Gallus gallus, UniProt P16924); test: Activity to inhibit protocollagen prolyl hydroxylase; type: biochemical, chick embryos; settings: concentration required for 50% inhibition of enzymic activity; pH 7.8, 37° C., 30 minutes; substrate (Pro-Pro-Gly)5.4H2O; read-out: ID50 (the source's name) (converted)
T1 construct: 190 chick embryos (14 days old) were homogenized; from tissue; host or cells: whole 14-day chick embryos; Triton X-100 extract, ammonium sulfate, calcium phosphate gel and DEAE-cellulose fractions
T1 sequence (P16924 1-516): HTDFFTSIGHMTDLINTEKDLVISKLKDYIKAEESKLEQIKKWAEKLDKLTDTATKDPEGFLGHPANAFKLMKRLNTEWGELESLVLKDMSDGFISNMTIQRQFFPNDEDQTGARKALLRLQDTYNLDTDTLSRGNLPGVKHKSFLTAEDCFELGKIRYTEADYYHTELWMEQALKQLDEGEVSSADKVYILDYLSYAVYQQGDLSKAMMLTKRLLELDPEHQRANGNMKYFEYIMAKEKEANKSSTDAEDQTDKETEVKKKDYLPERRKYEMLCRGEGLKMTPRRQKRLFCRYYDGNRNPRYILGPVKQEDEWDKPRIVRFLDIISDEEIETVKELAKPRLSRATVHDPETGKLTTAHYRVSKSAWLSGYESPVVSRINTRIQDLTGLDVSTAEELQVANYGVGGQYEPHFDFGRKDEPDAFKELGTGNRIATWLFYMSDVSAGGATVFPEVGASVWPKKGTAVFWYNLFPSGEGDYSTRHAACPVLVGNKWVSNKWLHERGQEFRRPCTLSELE
T1 sequence (P09102 23-515 partner): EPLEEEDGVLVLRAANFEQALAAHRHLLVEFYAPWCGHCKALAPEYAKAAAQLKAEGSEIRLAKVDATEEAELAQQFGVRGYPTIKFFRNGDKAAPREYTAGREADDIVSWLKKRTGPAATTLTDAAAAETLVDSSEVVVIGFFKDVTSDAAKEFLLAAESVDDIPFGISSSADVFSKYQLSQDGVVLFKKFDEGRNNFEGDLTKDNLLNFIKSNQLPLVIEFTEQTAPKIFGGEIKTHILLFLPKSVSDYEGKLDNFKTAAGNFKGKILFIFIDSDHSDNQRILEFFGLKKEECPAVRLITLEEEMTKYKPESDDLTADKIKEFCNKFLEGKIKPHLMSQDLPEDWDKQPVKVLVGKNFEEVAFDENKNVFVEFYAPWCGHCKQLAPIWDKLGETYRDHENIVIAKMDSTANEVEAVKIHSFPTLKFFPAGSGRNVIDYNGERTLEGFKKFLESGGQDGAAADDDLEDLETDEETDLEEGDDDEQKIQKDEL
Description: Method for the preparation of protocollagen prolyl hydroxylase: The method of K.I. Kivirikko et al and that of J. Halme et al were partially modified. [cf. Journal of Biological Chemistry 242, 4007 (1967) and Biochimica et Biophysica Acta 198, 460 (1970)]. Thus, 190 chick embryos (14 days old) were homogenized in 1600 ml of NaCl-GlycineTris[tris(hydroxymethyl)aminomethane]-HCl buffer containing 0.1% Triton [polyethylene glycol p-isooctylphenyl ether] X-100 (pH 7.5) and centrifuged. […]
Thus, 1.5 ml of a reaction mixture containing 50 μmols of Tris-HCl buffer (pH 7.8), 0.1 μmol of 1-^14 C-α-ketoglutarate (0.016 μ Ci), 0.5 μmol of ascorbate, 0.1 μmol of ferrous ammonium sulfate, 4.0 mg of heat denatured bovine serum albumin, 0.1 mg of crystalline bovine liver catalase, 0.15 μmol of dithiothreitol, 0.15 mg of (Pro-Pro-Gly)5.4H2 O, 0.5 ml of the enzyme solution and 0.1 ml of either methanol or methanol solution containing an inhibitor was put in a sealed test tube in which a filter paper impregnated with Hyamine (Hydroxide and Hyamine 10-X (Packard Instrument Co.)] had been hung and the reaction was carried out under shaking at 37° C. for 30 minutes. The reaction was terminated by the addition of 0.5 ml of 25% trichloroacetic acid and the enzymic activity was determined by measuring the radioactivity of the released ^14 CO2 trapped in filterpaper. […]

collagen biosynthesis [2] = test: Hydroxyproline content of liver in carbon tetrachloride-induced hepatic cirrhosis; type: in vivo, Male Sprague-Dawley rats; settings: CCl4 + compound, i.p. 100 mg/kg three times weekly, total 10 doses
Description: (§1) Male Sprague-Dawley rats weighting approximately 150 g each were divided into three groups. The first group received both 10% CCl4 -olive oil mixture (1 ml/rat) and compound (I) (100 mg/kg) intraperitoneally three times weekly for a total 10 doses. The second and third groups received 10% CCl4 -olive oil mixture (1 ml/rat) and olive oil (1 ml/rat) intraperitoneally three times weekly for a total 10 doses, respectively. The rats were sacrificed two days after the last injection and the livers were immediately removed for the assays.
Hydroxyproline content of the livers was measured in a 6N-HCl hydrolysate (110° C., 22h) by the method of Blumenkrantz et al.
(§2) The specific activity of protocollagen prolyl hydroxylase and hydroxyproline content in the liver treated with the compound as shown in Table 3.

[3] = test system: protocollagen prolyl hydroxylase; test: Protocollagen prolyl hydroxylase activity in liver in carbon tetrachloride-induced hepatic cirrhosis; type: in vivo, Male Sprague-Dawley rats; settings: CCl4 + compound, i.p. 100 mg/kg three times weekly, total 10 doses, dpm = decay per minute
Description: as §1
A 10% homogenate of the liver was prepared in 20 m mol/l Tris-HCl buffer (pH 7 5) containing 0.2 mol/l NaCl, 0.1 mol/l glycine, 5×10^-5 mol/l 1,4-dithiothreitol, and 0.1% Triton X-100 using a Polytron homogenizer. The homogenate was centrifuged at 15,000 g for 20 minutes and the clear supernatant was assayed for protocollagen prolyl hydroxylase activity by the method of Hutton et al [Analytical Biochemistry 16, 384 (1966)]. The protein content of the homogenate was measured by the method of Lowry et al [Journal of Biological Chemistry 193, 265 (1951)] using bovine serum albumin as the standard.
as §2

collagen biosynthesis [4] = test: Inhibition of collagen biosynthesis in normal rats (uteri of 17-β-estradiol-stimulated immature rats); type: in vivo, SD rats (female, 3 weeks old); settings: i.p. 100 mg/kg at intervals of 24 hours, 6 days; for inhibition at 100 mg/kg: Rattus norvegicus, ip, vs 17-β-estradiol control
Description: According to the partially modified method of R.A. Salvador et al [Archives of Biochemistry and Biophysics 174, 382 (1976)], the following experiment was carried out with SD rats (female, 3 weeks old) in groups of 4 animals.
The test compound suspended in 4% gum arabic-physiological saline was intraperitoneally administered to rats in doses of 100 mg/kg at intervals of 24 hours for 6 consecutive days.
During the final 3 days, 5 μg/rat of 17-β-estradiol in 5% ethanol-saline solution or 5% ethanol-saline solution was administered one hour after the administration of compound (I). On the 7th day, each rat was killed and the uterus was excised, washed with ethanol-diethylether, dried at 60° C. for 2 hours and weighted to know the dry weight. The dry preparation was hydrolyzed with 3 ml of 6N-HCl at 110° C. for 22 hours, after which it was concentrated to dryness to remove the hydrochloric acid. The total amino acid in the hydrolyzate was determined by ninhydrin assay and from this value the total protein content of uterus was calculated as leucine equivalent. The amount of hydroxyproline in the hydrolyzate was also measured by the method of Blumenkratz et al [Analytical Biochemistry 63, 331 (1975)] and multiplied by 7.23 to obtain the amount of collagen. The amount of noncollagenous protein was calculated by substracting the amount of collagen from the total amount of protein.
The inhibitory activity of this compound on the synthesis of collagen and noncollagenous protein in the uteri of 17-β-estradiol-stimulated immature rats are shown as % reductions in the amounts of collagen and noncollagenous protein. Inhibition rate is calculated by the equation described in the legend of Table 2.

Acute toxicity = test: Acute toxicity; design: species or system male 4-week-old mice; settings: mouse, in vivo, ip; intraperitoneal; mice, groups of 5; 8 days observation
Description: Protocatechuic acid was intraperitoneally administered to male 4-week-old mice in groups of 5 animals and the animals were kept under observation for 8 days. The LD50 values thus found was >400 mg/kg for it.

[5] = 17-β-estradiol + compound, uterus, 7th day

With O=C(O)c1ccc(O)c(O)c1 [Protocatechuic acid, protocatechuic acid] the IC50 [1] was 19.5 µM, the Hydroxyproline (collagen biosynthesis [2]) was 0.70 ± 0.09 μg/mg of liver and the Prolyl hydroxylase [3] was 1463 ± 236 dpm/mg of protein. For the same molecule, the “Body weight of rats, 7th day” value (collagen biosynthesis [4]; 17-β-estradiol + compound) was 75 ± 3 g, the Total collagen (collagen biosynthesis [4]; [5]) was 3.31 ± 0.37 mg/uterus and the Total protein (collagen biosynthesis [4]; [5]) was 25.4 ± 2.2 mg/uterus. It also gave an inhibition at 100 mg/kg (collagen biosynthesis [4]; uterus, read-out: Inhibition rate, collagen) of 85%, an inhibition at 100 mg/kg (collagen biosynthesis [4]; uterus, read-out: Inhibition rate, noncollagenous protein) of 15% and an LD50 at 192 h (Acute toxicity) of over 400 mg/kg.
With O=C(O)Cc1ccc(O)c(O)c1 [Homoprotocatechnic acid, homoprotocatechuic acid] the IC50 [1] was 17.8 µM.
